Laboratory results as given in patent publication US20240391881A1, “PHARMACEUTICAL USE AND PREPARATION METHOD FOR SUBSTITUTED HETEROARYL PHTHALAZINE DERIVATIVE” (ORIGIANT PHARMACEUTICAL CO., LTD., priority 2021, published 2024).

Target: T1, NLRP3 inflammasomes (Homo sapiens, UniProt Q96P20)
T1 construct: endogenous in cells; host or cells: THP-1 human monocytic cells, PMA-differentiated, LPS-primed, nigericin-stimulated
Experiment: THP-1 pyroptosis test (cell pyroptosis test)
Assay type: cell-based
Conditions: THP-1 cells differentiated with PMA, LPS stimulation, 10 μM nigericin, drug 0.001-10 μM, MTT absorbance 562 nm
Procedure: In vitro activity screening was performed on small molecule compounds targeting inhibition on NLRP3 inflammasomes using THP-1 human monocytic cells (THP-1). THP-1 can be induced to differentiate into macrophages by phorbol ester (PMA), and the macrophages M1 can be induced to polarize by lipopolysaccharide (LPS) to release cytokines such as TNF-α, and IL-6, so as to establish a typical inflammatory model.
THP-1 cells in a logarithmic growth phase were collected to prepare a 1×10^6 cells/mL cell suspension, PMA was added to achieve a final concentration of 300 ng/mL in the cell suspension, then 1×10^5 cells were inoculated to each well of a 96-well plate, and the cells were cultured in a 37° C., 5% CO2 cell incubator for 24 hours and induced to differentiate into macrophages.
The next day, LPS was added to stimulate and induce the cells to produce an inflammatory model. […] In the 200 μL system of the 96-well plate, the final concentration of each drug was 0.001-10 μM, and the final concentration of the nigericin was 10 μM.
Cell apoptosis protection rate=[(X−C0)/(C−C0)]×100%
wherein, C, C0 and X represent average absorbance values of the normal cell group, the blank control group, and the drug treatment group, respectively. Finally, cell survival curves were fitted by Graphpad Prism 5.0 software and EC50 values of the compounds to be tested in inhibiting pyroptosis caused by NLRP3 inflammasomes were calculated.

T1 sequence (Q96P20 whole entry): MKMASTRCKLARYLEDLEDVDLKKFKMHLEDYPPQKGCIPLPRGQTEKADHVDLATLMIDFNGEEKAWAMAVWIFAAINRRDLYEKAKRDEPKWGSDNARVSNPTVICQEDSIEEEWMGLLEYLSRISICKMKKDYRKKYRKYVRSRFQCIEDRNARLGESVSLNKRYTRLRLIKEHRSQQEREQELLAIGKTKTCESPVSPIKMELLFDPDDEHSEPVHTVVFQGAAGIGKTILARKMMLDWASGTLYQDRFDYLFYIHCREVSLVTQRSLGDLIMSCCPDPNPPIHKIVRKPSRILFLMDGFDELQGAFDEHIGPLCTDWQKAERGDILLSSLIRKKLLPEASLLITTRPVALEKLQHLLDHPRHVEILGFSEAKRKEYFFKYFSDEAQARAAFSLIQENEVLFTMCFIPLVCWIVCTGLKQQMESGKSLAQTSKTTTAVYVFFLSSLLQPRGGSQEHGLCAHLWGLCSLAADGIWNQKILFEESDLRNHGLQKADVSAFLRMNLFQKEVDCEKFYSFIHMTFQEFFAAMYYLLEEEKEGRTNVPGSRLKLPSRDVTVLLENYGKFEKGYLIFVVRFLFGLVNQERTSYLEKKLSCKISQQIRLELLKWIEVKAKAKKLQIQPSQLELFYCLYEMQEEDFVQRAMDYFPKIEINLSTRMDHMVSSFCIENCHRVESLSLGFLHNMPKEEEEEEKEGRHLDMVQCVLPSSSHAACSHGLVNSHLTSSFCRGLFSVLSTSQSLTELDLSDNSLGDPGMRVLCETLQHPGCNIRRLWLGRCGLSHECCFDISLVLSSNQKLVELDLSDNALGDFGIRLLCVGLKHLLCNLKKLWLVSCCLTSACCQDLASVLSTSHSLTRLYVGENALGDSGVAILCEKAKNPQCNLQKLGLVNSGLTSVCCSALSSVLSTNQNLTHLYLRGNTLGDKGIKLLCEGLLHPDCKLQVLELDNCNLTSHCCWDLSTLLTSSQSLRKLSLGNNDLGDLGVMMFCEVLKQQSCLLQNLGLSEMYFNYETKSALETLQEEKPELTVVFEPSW

Row | Compound | EC50 [nM]
1 | CN1CCC[C@@H](Nc2nnc(-c3ccc(C(F)(F)F)cc3O)c3ncn(C)c23)C1 [Compound 36, (R)-2-(1-methyl-7-((1-methylpiperidin-3-yl)amino)-1H-imidazo[4,5-d]pyridazin-4-yl)-5-(trifluoromethyl)phenol] | 500 to 1000
2 | CN1CCC(CNc2nnc(-c3ccc(C(F)(F)F)cc3O)c3c2cnn3C)CC1 [Compound 75] | 100 to 500
3 | CCCCNc1nnc(-c2ccc(C(F)(F)F)cc2O)c2ccccc12 [Compound 11, 2-(4-(butylamino)phthalazin-1-yl)-5-(trifluoromethyl)phenol] | > 1000
4 | Cc1ccc(-c2nnc(N[C@@H]3CCCN(C)C3)c3ncc(C)cc23)c(O)c1 [Compound 60, 5-methyl-2-(3-methyl-8-{[(3R)-1-methylpiperidin-3-yl]amino}pyridino[2,3-d]pyridazin-5-yl)phenol] | < 20
5 | CCN1CC[C@@H](Nc2nnc(-c3ccc(C(F)(F)F)cc3O)c3ccccc23)C1 [Compound 25, (R)-2-(4-((1-ethylpyrrolidin-3-yl)amino)phthalazin-1-yl)-5-(trifluoromethyl)phenol] | < 20
6 | Cc1cnc2c(-c3ccc(C(F)(F)F)cc3O)nnc(N[C@@H]3CCCN(C)C3)c2c1 [Compound 49, 2-(3-methyl-5-{[(3R)-1-methylpiperidin-3-yl]amino}pyridino[2,3-d]pyridazin-8-yl)-5-(trifluoromethyl)phenol] | < 20
7 | Cc1ccc(-c2nnc(N[C@@H]3CCCN(C)C3)c3ccccc23)c(O)c1 [Compound 40, (R)-5-methyl-2-(4-((1-methylpiperidin-3-yl)amino)phthalazin-1-yl)phenol] | < 20
8 | CN1CCC[C@@H](Nc2nnc(-c3sccc3O)c3c2ncn3C)C1 [Compound 83] | > 1000
9 | C[C@H](Nc1nnc(-c2ccc(C(F)(F)F)cc2O)c2ccccc12)c1ccccn1 [Compound 13, (S)-2-(4-((1-(pyridin-2-yl)ethyl)amino)phthalazin-1-yl)-5-(trifluoromethyl)phenol] | > 1000
10 | CCc1cnc2c(N[C@@H]3CCCN(C)C3)nnc(-c3ccc(C(F)(F)F)cc3O)c2c1 [Compound 50, (R)-2-(3-ethyl-8-((1-methylpiperidin-3-yl)amino)pyridino[2,3-d]pyridazin-5-yl)-5-(trifluoromethyl)phenol] | < 20
11 | CN1CC(Nc2nnc(-c3ccc(C(F)(F)F)cc3O)c3cnn(C)c23)CCC1=O (stereo not drawn) [Compound 67] | 100 to 500
12 | CN1CCC[C@@H](Nc2nnc(-c3ccc(C(F)(F)F)cc3O)c3cscc23)C1 [Compound 54, (R)-2-(4-((1-methylpiperidin-3-yl)amino)thieno[3,4-d]pyridazin-1-yl)-5-(trifluoromethyl)phenol] | < 20
13 | CN1CCC(Nc2nnc(-c3ccc(C(F)(F)F)cc3O)c3c2cnn3C)CC1 [Compound 68] | 500 to 1000
14 | C[C@@H](Nc1nnc(-c2ccc(C(F)(F)F)cc2O)c2ccccc12)c1ccccc1 [Compound 7, (R)-2-(4-((1-phenylethyl)amino)phthalazin-1-yl)-5-(trifluoromethyl)phenol] | > 1000
15 | C[C@@H](Nc1nnc(-c2ccc(C(F)(F)F)cc2O)c2ccccc12)c1ccccn1 [Compound 12, (R)-2-(4-((1-(pyridin-2-yl)ethyl)amino)phthalazin-1-yl)-5-(trifluoromethyl)phenol] | > 1000
16 | Cc1ccc2c(N[C@@H]3CCCN(C)C3)nnc(-c3ccc(C(F)(F)F)cc3O)c2c1 [Compound 3, (R)-2-(7-methyl-4-((1-methylpiperidin-3-yl)amino)phthalazin-1-yl)-5-(trifluoromethyl)phenol] | < 20
17 | CN1CCC[C@@H](Nc2nnc(-c3ccc(C(F)(F)F)cc3O)c3ccc(P(C)(C)=O)cc23)C1 [Compound 43, (R)-(1-(2-hydroxy-4-(trifluoromethyl)phenyl)-4-((1-methylpiperidin-3-yl)amino)phthalazin-6-yl)dimethylphosphine oxide] | 500 to 1000
18 | CN1CCC[C@@H](Nc2nnc(-c3ccc(C(F)(F)F)cc3O)c3cc(P(C)(C)=O)ccc23)C1 [Compound 45, (R)-(4-(2-hydroxy-4-(trifluoromethyl)phenyl)-1-((1-methylpiperidin-3-yl)amino)phthalazin-6-yl)dimethylphosphine oxide] | 500 to 1000
19 | C[C@H](Nc1nnc(-c2ccc(C(F)(F)F)cc2O)c2ccccc12)c1ccc(F)cc1 [Compound 10, (S)-2-(4-((1-(4-fluorophenyl)ethyl)amino)phthalazin-1-yl)-5-(trifluoromethyl)phenol] | > 1000
20 | CCc1cnc2c(-c3ccc(C(F)(F)F)cc3O)nnc(N[C@@H]3CCCN(C)C3)c2c1 [Compound 51, (R)-2-(3-ethyl-5-((1-methylpiperidin-3-yl)amino)pyridino[2,3-d]pyridazin-8-yl)-5-(trifluoromethyl)phenol] | 20 to 100
21 | CC(C)(O)CNc1nnc(-c2ccc(C(F)(F)F)cc2O)c2ccccc12 [Compound 20, 2-(4-((2-hydroxy-2-methylpropyl)amino)phthalazin-1-yl)-5-(trifluoromethyl)phenol] | > 1000
22 | CN1CCC[C@@H](Nc2nnc(-c3cc(F)ccc3O)c3ccccc23)C1 [Compound 46, (R)-4-fluoro-2-(4-((1-methylpiperidin-3-yl)amino)phthalazin-1-yl)phenol] | 20 to 100
23 | Cc1ccc2c(-c3ccc(C(F)(F)F)cc3O)nnc(N[C@@H]3CCCN(C)C3)c2c1 [Compound 4, (R)-2-(6-methyl-4-((1-methylpiperidin-3-yl)amino)phthalazin-1-yl)-5-(trifluoromethyl)phenol] | < 20
24 | Cc1cnc2c(N[C@@H]3CCCN(C)C3)nnc(-c3ccc(C(F)(F)F)cc3O)c2c1 [Compound 48, 2-(3-methyl-8-{[(3R)-1-methylpiperidin-3-yl]amino}pyridino[2,3-d]pyridazin-5-yl)-5-(trifluoromethyl)phenol] | < 20
25 | CC(=O)N1CCC[C@@H](Nc2nnc(-c3ccc(C(F)(F)F)cc3O)c3ccccc23)C1 [Compound 32, (R)-1-(3-((4-(2-hydroxy-4-(trifluoromethyl)phenyl)phthalazin-1-yl)amino)piperidin-1-yl)ethane-1-one] | 20 to 100
26 | C[C@@H](Nc1nnc(-c2ccc(C(F)(F)F)cc2O)c2ccccc12)c1ccc(F)cc1 [Compound 9, (R)-2-(4-((1-(4-fluorophenyl)ethyl)amino)phthalazin-1-yl)-5-(trifluoromethyl)phenol] | > 1000
27 | CN1CCC(Nc2nnc(-c3ccc(C(F)(F)F)cc3O)c3ccccc23)CC1 [Compound 35, 2-(4-((1-methylpiperidin-4-yl)amino)phthalazin-1-yl)-5-(trifluoromethyl)phenol] | 500 to 1000
28 | Cn1cnc2c(-c3ccc(C(F)(F)F)cc3O)nnc(NCCN3CCOCC3)c21 [Compound 77] | > 1000
29 | Cc1ccc2c(N[C@@H]3CCCN(C)C3)nnc(-c3ccc(C(F)(F)F)cc3O)c2n1 [Compound 53, (R)-2-(2-methyl-5-((1-methylpiperidin-3-yl)amino)pyridino[2,3-d]pyridazin-8-yl)-5-(trifluoromethyl)phenol] | 100 to 500
30 | CN1CCC[C@@H](Nc2nnc(-c3ccc(C(F)(F)F)cc3O)c3c2ncn3C)C1 [Compound 37, (R)-2-(1-methyl-4-((1-methylpiperidin-3-yl)amino)-1H-imidazo[4,5-d]pyridazin-7-yl)-5-(trifluoromethyl)phenol] | < 20
